Measured values as given in patent publication EP0906078B1, “TOPICAL USE OF TEMPOL IN THE PREVENTION OF PHOTOAGING” (Bernstein, Eric F., priority 1996, dated 1997).
Where “and” joins values, the source holds several entries; their conditions need not be identical. Equal values may be shown once.

Key:
[1] = system: human elastin promoter; assay: UVA/8-MOP (PUVA)-induced promoter activation (CAT activity) in fibroblast cultures from transgenic mice; type: cell-based
Procedure: Because a response to UVA alone in vitro is not measurable and the in vivo response is relatively small, 8-methoxypsoralen (8-MOP) was added to the system to enhance the promoter response to UVA.
In these experiments, control cells received no UVA or 8-MOP. UVA controls received either 0.5, 0.75 or 1.0 J/cm^2 of UVA without prior incubation with 8-MOP. 8-MOP controls received 1 µg/ml of 8-MOP but no UVA. Tempol controls received 100 mM Tempol and no UVA or 8-MOP. PUVA-treated cells were preincubated with 1.0 µg/ml of 8-MOP in PBS and then exposed to 0.5, 0.75 or 1.0 J/cm^2. Tempol treated cells were pretreated with 100 mM Tempol 12.5 minutes prior to UVA exposure. 8-MOP was also added to these cells at the same time as the Tempol.
The addition of Tempol to the cultures reduced the PUVA-induced increase in CAT activity to 1.5-, 1.2- and 2.0-fold that of controls, respectively, thus almost completely eliminating the PUVA-induced increase in CAT activity.
Fibroblast cultures were established from the skin of transgenic mice by explanting tissue specimens onto plastic tissue culture dishes and allowing cells to migrate to the surrounding area. The primary cultures were maintained in Dulbecco's modified Eagle's medium supplemented with 10% fetal calf serum, 2 mM L-glutamine and antibiotics, at 37°C. The primary cell cultures were passaged by trypsinization, and the subcultures in passages three or four were utilized for UVB treatment. After UV exposure, the cells were incubated in tissue culture medium for 24 hours, and then harvested for determination of CAT activity.
To measure the expression of the human elastin promoter/CAT reporter gene construct in the skin of transgenic mice and in fibroblast cultures established from these animals, CAT activity was determined. For extraction of the CAT from skin, the specimens were homogenized in 0.25 Tris-HCl, pH 7.5, using a tissue homogenizer (Brinkmann Instruments, Inc. Westbury, NY). The homogenates were centrifuged at 10,000 X g for 15 minutes at 4°C and the protein concentration in the supernatant determined by a commercial protein assay kit (Bio-Rad Laboratories, Richmond, CA). Aliquots of the supernatant containing 100 µg of protein were used for assay of CAT activity by incubation with [^14C] chloramphenicol in accordance with well-known procedures. The acetylated and non-acetylated forms of radioactive chloramphenicol were separated by thin-layer chromatography and CAT activity was determined by the radioactivity in the acetylated forms as a percent of the total radioactivity in each sample.
Irradiation with UVA was performed using a closely spaced array of seven Sylvania FR40T12 PUVA lamps filtered through window glass of 2 mm thickness to remove wavelengths below 320 nm. The energy output at 38 cm from the array was measured with a Solar Light Model 3D UVA and UVB detector (Solar Light Company, Philadelphia, PA). The output of the lamps filtered through the window glass was 2.02 mW/cm^2, with no detectable UVB.

[2] = system: human elastin promoter; assay: UVB-induced promoter activation (CAT activity) in fibroblast cultures from transgenic mice
[3] = system: human elastin promoter; assay: Transgenic mouse model of photoaging: human elastin promoter/CAT reporter activity in skin after UVB; details: in vivo
[4] = in vivo; cited from earlier work
[5] = Absorption spectrum; type: physicochemical

Compound	CAT activity ([1]; 1 µg/ml 8-MOP and 0.5 J/cm^2 UVA, no Tempol, relative to controls)	CAT activity ([1]; 1 µg/ml 8-MOP and 0.75 J/cm^2 UVA, no Tempol, relative to controls)	CAT activity ([1]; 1 µg/ml 8-MOP and 1.0 J/cm^2 UVA, no Tempol, relative to controls)	CAT activity ([1]; 8-MOP alone (1 µg/ml), no UVA)	CAT activity [1]	protection against the PUVA-induced increases in CAT activity [1]	% Protection from UVB [2]	further reduction of CAT activity by scavenging properties [2]	reduction in CAT activity from cells treated with UVB alone [2]	CAT activity [3]	detection in the blood following application [4]	absorption in the UVA range [5]
COc1c2occc2cc2ccc(=O)oc12 [8-MOP, 8-methoxypsoralen, reference compound]	2.7 fold	9.0 fold	21.4 fold	failed to produce significant CAT activity								
CC1(C)CC(O)CC(C)(C)N1[O] [Tempol, 4-hydroxy-2,2,6,6-tetramethyl-piperidinyloxy, free radical]					1.5 fold and 1.2 fold and 2.0 fold	failed to afford protection	41 p<0.01% and 74 p<0.001% and 69 p<0.001% and 42 p<0.001%	38%	~6 fold	1.7 fold and 3.3 fold	undetectable	very little absorption
